Conditions: after MZ1 administration, FIG. 23

## Cc1ncsc1-c1ccc(CNC(=O)[C@@H]2C[C@@H](O)CN2C(=O)[C@@H](NC(=O)COCCOCCOCCNC(=O)C[C@@H]2N=C(c3ccc(Cl)cc3)c3c(sc(C)c3C)-n3c(C)nnc32)C(C)(C)C)cc1 [MZ1]
  abnormality or body weight change: no abnormality or body weight change
